Laboratory results taken from ChEMBL document CHEMBL4257227, “Deubiquitinase inhibitors and methods for use of the same” (2016).
Activity calls are given as the source filed them. No cut-off for these calls is given here.

Assays:
A-375 [1] = experiment: Antitumor activity against human A375 cells xenografted in NOD/SCID/gamma-2 knockout mouse assessed as inhibition of tumor growth at 15 mg/kg, ip once per day for 8 days; format: functional, organism-based
Mus musculus [2] = experiment: Toxicity in human A375 cells xenografted NOD/SCID/gamma-2 knockout mouse assessed effect on body weight at 15 mg/kg, ip once per day for 8 days; format: functional, organism-based
Tulane virus = experiment: Antiviral activity against Tulane virus infected in […] LLC-MK cells assessed as reduction in viral plaque forming units; format: functional, organism-based
[3] = target: Ubiquitin carboxyl-terminal hydrolase 9X (Homo sapiens) (UniProt Q93008); experiment: Inhibition of Usp9x in primary tumor cells from patient with plasma cell leukemia assessed as reduction in MCL-1 protein levels at 5 uM incubated for 30 to 240 mins by SDS-PAGE and immunoblotting; format: cell-based
Chain of Ubiquitin carboxyl-terminal hydrolase 9X (Homo sapiens) (Q93008 whole entry): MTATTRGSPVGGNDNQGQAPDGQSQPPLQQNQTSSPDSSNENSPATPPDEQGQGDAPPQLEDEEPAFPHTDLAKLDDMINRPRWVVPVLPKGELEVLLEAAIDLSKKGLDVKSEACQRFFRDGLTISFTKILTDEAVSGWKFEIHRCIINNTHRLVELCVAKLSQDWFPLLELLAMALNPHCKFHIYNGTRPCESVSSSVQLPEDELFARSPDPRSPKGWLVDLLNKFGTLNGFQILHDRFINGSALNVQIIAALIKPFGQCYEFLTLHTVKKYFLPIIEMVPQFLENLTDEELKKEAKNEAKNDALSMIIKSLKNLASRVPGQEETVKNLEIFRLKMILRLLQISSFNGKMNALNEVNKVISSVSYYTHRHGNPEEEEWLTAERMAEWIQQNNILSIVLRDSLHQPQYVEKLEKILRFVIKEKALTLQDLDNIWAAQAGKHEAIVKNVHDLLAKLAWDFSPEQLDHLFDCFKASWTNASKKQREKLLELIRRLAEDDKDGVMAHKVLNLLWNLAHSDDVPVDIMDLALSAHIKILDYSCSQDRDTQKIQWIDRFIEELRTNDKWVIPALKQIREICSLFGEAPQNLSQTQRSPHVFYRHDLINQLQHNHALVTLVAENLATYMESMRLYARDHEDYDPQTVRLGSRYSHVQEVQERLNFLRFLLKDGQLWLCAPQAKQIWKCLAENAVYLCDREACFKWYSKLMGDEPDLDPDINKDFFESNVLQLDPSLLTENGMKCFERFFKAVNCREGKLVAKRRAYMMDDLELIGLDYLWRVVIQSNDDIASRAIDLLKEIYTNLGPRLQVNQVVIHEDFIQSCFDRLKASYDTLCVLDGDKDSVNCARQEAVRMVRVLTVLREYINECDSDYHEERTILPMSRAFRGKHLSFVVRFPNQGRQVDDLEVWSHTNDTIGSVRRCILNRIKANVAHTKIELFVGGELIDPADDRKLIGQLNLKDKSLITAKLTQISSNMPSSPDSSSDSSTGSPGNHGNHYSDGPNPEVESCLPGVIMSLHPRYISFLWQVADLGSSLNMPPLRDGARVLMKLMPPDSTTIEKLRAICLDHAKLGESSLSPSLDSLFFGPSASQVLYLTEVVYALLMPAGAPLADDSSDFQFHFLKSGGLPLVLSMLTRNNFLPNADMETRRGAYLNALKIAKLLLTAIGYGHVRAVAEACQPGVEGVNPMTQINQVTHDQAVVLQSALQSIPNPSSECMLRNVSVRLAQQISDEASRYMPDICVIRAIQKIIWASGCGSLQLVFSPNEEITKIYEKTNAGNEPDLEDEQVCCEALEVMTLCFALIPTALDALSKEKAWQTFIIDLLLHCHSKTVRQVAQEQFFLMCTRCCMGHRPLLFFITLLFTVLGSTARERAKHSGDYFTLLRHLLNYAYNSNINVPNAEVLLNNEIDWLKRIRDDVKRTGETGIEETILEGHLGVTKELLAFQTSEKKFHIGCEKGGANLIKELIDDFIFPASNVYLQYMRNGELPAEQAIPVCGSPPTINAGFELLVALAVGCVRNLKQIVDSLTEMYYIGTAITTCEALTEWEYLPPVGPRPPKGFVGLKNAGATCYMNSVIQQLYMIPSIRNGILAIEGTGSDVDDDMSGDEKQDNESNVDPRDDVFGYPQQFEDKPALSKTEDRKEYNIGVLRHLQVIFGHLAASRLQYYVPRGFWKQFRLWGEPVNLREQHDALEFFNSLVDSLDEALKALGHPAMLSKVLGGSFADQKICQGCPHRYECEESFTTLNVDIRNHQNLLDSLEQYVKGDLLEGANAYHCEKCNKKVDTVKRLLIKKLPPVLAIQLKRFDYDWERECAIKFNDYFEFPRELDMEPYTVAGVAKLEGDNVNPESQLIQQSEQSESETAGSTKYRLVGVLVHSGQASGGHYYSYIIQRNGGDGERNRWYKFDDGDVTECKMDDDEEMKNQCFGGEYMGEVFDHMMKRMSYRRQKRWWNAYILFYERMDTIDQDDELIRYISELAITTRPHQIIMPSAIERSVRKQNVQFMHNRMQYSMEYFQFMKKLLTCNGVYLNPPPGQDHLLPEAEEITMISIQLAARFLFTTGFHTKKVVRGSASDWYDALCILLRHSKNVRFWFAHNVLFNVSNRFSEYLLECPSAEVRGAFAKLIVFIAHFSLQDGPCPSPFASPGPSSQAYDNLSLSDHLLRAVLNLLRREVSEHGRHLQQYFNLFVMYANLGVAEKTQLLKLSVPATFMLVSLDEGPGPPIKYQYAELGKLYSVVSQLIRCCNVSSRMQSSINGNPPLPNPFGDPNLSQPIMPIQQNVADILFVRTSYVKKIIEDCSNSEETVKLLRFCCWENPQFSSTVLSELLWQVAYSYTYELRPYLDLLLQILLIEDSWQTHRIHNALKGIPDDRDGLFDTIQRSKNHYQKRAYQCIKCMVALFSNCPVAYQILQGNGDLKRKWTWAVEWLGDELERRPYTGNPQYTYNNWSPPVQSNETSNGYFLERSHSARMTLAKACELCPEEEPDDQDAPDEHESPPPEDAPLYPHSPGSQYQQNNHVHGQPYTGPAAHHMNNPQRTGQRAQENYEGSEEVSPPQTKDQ

[4] = target: T1, Ubiquitin carboxyl-terminal hydrolase 5 (Homo sapiens) (UniProt P45974); experiment: Inhibition of USP5 in Vemurafenib […] human A375R cells assessed as reduction in ERK phosphorylation
T1 sequence (whole entry): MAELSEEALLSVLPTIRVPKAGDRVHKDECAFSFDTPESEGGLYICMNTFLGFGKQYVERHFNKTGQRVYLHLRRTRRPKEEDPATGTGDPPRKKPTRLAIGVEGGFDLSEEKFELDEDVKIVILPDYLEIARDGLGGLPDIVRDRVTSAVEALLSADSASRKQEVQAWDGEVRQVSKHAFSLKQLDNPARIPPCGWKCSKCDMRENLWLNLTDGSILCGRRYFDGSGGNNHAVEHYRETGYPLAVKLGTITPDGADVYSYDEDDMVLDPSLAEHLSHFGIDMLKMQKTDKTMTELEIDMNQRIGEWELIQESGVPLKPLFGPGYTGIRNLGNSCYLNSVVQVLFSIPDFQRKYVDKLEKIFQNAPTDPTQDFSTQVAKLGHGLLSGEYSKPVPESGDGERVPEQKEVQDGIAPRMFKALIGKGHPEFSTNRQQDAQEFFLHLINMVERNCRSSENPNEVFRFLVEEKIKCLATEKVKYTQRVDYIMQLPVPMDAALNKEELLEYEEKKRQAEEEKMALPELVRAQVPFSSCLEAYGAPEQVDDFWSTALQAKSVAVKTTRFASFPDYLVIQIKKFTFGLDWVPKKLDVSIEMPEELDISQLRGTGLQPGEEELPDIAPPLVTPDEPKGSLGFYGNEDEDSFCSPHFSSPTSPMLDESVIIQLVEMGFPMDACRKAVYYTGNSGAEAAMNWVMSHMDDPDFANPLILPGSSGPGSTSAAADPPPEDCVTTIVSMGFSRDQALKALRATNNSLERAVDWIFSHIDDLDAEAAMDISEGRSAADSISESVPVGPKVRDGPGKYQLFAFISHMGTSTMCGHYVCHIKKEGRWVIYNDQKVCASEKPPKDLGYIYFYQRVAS

Mus musculus [5] = experiment: Inhibition of Usp9x in tumor of human MM1S cells xenografted in NOD/SCID/gamma-2 knockout mouse at 15 mg/kg, ip once per day for 14 days; format: organism-based; conditions: in vivo, 336 h
[6] = target: Ubiquitin carboxyl-terminal hydrolase 9X (Homo sapiens) (UniProt Q93008); experiment: Inhibition of USP9x in Vemurafenib resistant human A375 cells assessed as STAT3 phosphorylation
[7] = Plasma concentration in Balb/c mouse at 30 mg/kg, po after 7 hrs by LC-MS analysis; format: ADME, organism-based
A375/R = experiment: Induction of apoptosis in human A375R cells assessed as induction of Bid cleavage; format: functional, cell-based
[8] = target: Ubiquitin carboxyl-terminal hydrolase 9X (Homo sapiens) (UniProt Q93008); experiment: Inhibition of Usp9x in human MM1.S cells assessed as reduction in MCL-1 protein levels at 5 uM incubated for 5 to 240 mins by SDS-PAGE and immunoblotting; format: cell-based
[9] = Plasma concentration in Balb/c mouse at 30 mg/kg, po after 0.5 hrs by LC-MS analysis; format: ADME, organism-based
A-375 [10] = experiment: Antitumor activity against human A375 cells xenografted in NOD/SCID/gamma-2 knockout mouse assessed as inhibition of tumor growth at 7.5 mg/kg, ip once per day for 8 days; format: functional, organism-based
[11] = AUClast in Balb/c mouse at 10 mg/kg, iv by LC-MS analysis; format: ADME, organism-based; design: dose 10 mg/kg, route intravenous, time 0 - last; conditions: in vivo
[12] = AUClast in Balb/c mouse at 30 mg/kg, po by LC-MS analysis; format: ADME, organism-based; design: dose 30 mg/kg, route oral, time 0 - last; conditions: in vivo
Mus musculus [13] = experiment: Toxicity in human MM1S cells xenografted NOD/SCID/gamma-2 knockout mouse assessed effect on body weight at 15 to 20 mg/kg, ip once per day for 14 days; format: functional, organism-based
[14] = target: T1, Ubiquitin carboxyl-terminal hydrolase 5 (Homo sapiens); experiment: Inhibition of USP5 in Vemurafenib sensitive human A375 cells assessed as reduction in ERK phosphorylation
MM1.S = experiment: Antitumor activity against human MM1S cells xenografted in NOD/SCID/gamma-2 knockout mouse assessed as inhibition of tumor growth at 5 to 20 mg/kg, ip once per day for 14 days; format: functional, organism-based
Mus musculus [15] = experiment: Toxicity in human MM1S cells xenografted NOD/SCID/gamma-2 knockout mouse assessed effect on body weight at 2.5 to 10 mg/kg, ip once per day for 14 days; format: functional, organism-based
Murine norovirus = experiment: Antiviral activity against Murine norovirus infected in Balb/c bone marrow derived macrophages assessed as reduction in viral plaque forming units; format: functional, organism-based
A-375 [16] = experiment: Antitumor activity against human A375 cells xenografted in NOD/SCID/gamma-2 knockout mouse assessed as inhibition of tumor growth at 7.5 to 15 mg/kg, ip once per day for 8 days; format: functional, organism-based
La Crosse virus = experiment: Antiviral activity against La Crosse virus virus infected in human Be2-c cells assessed as reduction in viral plaque forming units; format: functional, organism-based
[17] = Plasma concentration in Balb/c mouse at 10 mg/kg, iv after 2 hrs by LC-MS analysis; format: ADME, organism-based
[18] = target: T1, Ubiquitin carboxyl-terminal hydrolase 5 (Homo sapiens); experiment: Inhibition of USP5 in Vemurafenib […] human A375R cells assessed as increase in NOXA protein level

inhibition [3]: Active
inhibition [4]: Active
inhibition (INH) (Mus musculus [5]): Active
inhibition [6]: Active
concentration at 7 h [7]: 0.0161 to 0.0376 µg/mL
inhibition [8]: Active
concentration at 0.5 h [9]: 0.0608 to 0.0787 µg/mL
AUC(0-t) [11]: 3.57 to 3.73 µg·h/mL
AUC(0-t) [12]: 0.291 to 0.349 µg·h/mL
inhibition [14]: Active
concentration at 2 h [17]: 0.395 to 0.52 µg/mL
inhibition [18]: Active
SMILES: CCCC(NC(=O)/C(C#N)=C/c1nc(Cl)ccc1Cl)c1ccc(OCCN2CCOCC2)cc1 (stereo not drawn)
TGI (A-375 [1]): Active
Activity (Mus musculus [2]): Not toxic
Activity (Tulane virus): Active
Activity (A375/R): Active
TGI (A-375 [10]): Active
Activity (Mus musculus [13]): Toxic
TGI (MM1.S): Active
Activity (Mus musculus [15]): Not toxic
Activity (Murine norovirus): Active
TGI (A-375 [16]): Active
Activity (La Crosse virus): Active
